From patent US20220009920A1 (GB005, Inc., priority 2020, published 2022)

Columns and labels:
Assay in all cases: Large panel kinase profiling
Assay type in all cases: biochemical
Conditions in all cases: 1 μM test article, 1 mM ATP
IRAK1 = IRAK1 (Homo sapiens, UniProt P51617)
Procedure, shortened: (§1)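 With ATP fixed at 1 mM, each kinase was exposed to 1 μM compound in a PhosphoSens CSox-Sensor reaction. Sealed plates were incubated at 30° C. and read in kinetic mode.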

MARK1 = molecular target: T1, MARK1 (Homo sapiens, UniProt Q9P0L2)
T1 construct: AssayQuant Technologies, Inc. (assay service)
Procedure, shortened: as §1

EPHB2 = molecular target: T2, EPHB2 (Homo sapiens, UniProt P29323)
T2 sequence (P29323 19-1055): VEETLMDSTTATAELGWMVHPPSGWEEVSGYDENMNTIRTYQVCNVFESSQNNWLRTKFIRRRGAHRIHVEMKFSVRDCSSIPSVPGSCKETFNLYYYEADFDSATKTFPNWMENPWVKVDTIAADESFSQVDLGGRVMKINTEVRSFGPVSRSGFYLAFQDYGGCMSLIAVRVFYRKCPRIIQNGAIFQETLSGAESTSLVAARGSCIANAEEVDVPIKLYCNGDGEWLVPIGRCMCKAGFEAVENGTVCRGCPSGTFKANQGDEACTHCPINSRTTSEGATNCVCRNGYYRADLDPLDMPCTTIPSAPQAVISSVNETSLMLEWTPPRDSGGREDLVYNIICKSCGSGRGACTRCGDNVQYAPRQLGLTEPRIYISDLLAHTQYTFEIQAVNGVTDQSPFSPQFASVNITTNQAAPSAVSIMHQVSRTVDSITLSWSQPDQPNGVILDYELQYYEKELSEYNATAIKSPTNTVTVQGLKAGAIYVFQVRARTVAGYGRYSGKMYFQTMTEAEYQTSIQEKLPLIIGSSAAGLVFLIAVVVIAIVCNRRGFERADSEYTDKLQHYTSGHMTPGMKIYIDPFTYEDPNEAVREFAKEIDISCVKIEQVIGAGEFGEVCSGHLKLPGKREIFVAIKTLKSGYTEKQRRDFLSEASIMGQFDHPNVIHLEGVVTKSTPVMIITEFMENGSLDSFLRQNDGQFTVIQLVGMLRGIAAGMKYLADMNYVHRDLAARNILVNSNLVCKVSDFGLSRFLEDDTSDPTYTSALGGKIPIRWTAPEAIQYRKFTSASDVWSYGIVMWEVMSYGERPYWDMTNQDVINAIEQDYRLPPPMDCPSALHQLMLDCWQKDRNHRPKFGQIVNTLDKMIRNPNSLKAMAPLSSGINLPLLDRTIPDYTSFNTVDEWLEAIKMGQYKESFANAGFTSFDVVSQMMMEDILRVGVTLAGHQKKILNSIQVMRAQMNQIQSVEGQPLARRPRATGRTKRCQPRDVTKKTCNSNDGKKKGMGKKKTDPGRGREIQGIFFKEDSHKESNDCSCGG
Procedure, shortened: as §1

CSNK1G1/CK1G1 = molecular target: T3, CSNK1G1/CK1G1 (Homo sapiens, UniProt Q9HCP0)
T3 construct: AssayQuant Technologies, Inc. (service laboratory)
Procedure, shortened: as §1

TBK1 = molecular target: T4, TBK1 (Homo sapiens, UniProt Q9UHD2)
T4 construct: AssayQuant Technologies, Inc. (contract laboratory that ran the panel)
T4 sequence (Q9UHD2 1-729): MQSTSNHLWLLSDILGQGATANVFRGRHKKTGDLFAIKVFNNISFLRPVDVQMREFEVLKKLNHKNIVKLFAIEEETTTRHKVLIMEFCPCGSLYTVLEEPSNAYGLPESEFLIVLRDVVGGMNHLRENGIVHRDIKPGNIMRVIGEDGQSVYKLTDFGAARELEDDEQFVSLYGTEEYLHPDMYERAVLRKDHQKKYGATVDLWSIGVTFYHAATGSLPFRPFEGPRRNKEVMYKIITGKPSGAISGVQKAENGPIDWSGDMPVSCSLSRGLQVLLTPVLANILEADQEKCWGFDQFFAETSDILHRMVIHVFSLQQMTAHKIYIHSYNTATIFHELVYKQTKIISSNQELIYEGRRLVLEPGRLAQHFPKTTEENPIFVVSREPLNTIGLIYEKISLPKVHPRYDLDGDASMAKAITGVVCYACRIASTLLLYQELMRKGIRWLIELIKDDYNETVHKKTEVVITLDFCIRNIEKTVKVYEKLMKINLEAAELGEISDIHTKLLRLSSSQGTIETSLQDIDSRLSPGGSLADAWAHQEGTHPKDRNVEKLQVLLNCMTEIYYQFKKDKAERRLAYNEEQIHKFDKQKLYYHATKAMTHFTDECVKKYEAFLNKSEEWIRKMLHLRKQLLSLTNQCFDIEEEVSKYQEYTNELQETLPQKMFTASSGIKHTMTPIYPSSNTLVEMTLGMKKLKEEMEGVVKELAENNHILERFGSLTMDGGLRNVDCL
Procedure, shortened: as §1

MAP3K2 = molecular target: T5, MAP3K2 (Homo sapiens, UniProt Q9Y2U5)
T5 construct: AssayQuant Technologies, Inc. (service provider)
T5 sequence (Q9Y2U5 1-619): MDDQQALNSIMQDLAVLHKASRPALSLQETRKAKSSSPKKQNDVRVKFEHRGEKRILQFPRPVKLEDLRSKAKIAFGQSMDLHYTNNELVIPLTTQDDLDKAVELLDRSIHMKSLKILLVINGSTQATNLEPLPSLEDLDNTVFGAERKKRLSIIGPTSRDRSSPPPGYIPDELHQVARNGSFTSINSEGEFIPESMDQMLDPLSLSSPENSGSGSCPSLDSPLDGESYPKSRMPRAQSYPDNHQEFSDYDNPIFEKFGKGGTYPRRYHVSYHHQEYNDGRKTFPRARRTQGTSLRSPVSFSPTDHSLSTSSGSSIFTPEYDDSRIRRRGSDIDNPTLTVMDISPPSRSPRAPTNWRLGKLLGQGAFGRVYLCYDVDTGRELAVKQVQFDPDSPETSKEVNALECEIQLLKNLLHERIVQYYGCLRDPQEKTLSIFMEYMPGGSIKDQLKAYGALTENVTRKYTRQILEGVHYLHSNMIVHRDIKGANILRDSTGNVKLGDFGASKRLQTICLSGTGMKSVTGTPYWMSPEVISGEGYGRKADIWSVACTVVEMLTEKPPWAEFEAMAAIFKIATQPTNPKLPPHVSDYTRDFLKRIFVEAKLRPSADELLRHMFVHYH
Procedure, shortened: as §1

T3 sequence (Q9HCP0 whole entry): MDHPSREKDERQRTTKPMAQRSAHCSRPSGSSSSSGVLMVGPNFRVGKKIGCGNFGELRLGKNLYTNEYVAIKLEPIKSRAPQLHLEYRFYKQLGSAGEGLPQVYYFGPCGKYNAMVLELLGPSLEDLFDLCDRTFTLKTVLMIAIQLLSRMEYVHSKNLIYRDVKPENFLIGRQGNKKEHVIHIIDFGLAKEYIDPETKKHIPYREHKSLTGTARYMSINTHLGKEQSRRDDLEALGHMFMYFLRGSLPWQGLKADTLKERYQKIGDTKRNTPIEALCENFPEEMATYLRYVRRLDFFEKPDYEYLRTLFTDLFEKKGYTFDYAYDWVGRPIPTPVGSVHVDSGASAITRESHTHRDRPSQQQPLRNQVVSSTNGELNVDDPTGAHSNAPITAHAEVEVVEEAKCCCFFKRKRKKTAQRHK
T1 sequence (Q9P0L2 whole entry, species assumed): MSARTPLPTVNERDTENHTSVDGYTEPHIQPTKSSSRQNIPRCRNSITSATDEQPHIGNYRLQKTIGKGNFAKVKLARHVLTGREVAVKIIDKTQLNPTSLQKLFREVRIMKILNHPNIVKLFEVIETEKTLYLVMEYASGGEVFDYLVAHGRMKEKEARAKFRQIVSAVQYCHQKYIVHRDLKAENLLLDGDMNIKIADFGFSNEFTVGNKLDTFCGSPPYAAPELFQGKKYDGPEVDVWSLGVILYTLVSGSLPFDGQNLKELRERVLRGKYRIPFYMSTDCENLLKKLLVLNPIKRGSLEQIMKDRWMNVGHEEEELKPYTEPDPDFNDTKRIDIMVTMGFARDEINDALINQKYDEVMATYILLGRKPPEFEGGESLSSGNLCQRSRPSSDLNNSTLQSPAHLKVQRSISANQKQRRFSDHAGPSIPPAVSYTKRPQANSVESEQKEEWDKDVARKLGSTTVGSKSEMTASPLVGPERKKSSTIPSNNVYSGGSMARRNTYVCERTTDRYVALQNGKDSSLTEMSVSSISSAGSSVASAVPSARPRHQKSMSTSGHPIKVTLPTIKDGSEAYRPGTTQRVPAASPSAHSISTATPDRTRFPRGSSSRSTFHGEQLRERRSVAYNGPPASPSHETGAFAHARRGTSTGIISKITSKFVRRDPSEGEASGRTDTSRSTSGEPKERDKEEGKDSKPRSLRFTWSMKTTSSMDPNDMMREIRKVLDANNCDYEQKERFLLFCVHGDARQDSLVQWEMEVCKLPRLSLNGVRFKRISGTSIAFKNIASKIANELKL
Chain of IRAK1 (P51617 whole entry, species assumed): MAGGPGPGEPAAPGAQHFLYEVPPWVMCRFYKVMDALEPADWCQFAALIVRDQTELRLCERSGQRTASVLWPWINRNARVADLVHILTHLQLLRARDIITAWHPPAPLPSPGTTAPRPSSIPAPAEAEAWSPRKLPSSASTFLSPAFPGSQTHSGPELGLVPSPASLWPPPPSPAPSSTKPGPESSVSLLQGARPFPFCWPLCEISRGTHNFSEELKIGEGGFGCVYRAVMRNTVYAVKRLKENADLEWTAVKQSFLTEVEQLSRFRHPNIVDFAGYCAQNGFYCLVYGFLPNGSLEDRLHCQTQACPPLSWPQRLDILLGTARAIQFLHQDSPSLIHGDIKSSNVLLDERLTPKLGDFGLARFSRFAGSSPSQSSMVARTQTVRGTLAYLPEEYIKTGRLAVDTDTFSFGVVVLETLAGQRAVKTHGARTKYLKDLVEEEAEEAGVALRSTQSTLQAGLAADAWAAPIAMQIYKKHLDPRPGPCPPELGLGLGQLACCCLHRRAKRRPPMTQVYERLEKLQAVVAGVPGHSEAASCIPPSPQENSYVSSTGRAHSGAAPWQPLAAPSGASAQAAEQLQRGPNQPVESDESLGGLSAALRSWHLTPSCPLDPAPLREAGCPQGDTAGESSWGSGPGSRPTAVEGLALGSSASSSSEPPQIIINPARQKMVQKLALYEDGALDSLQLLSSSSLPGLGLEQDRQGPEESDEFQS

Row | Compound | inhibition at 1 µM (IRAK1) | inhibition at 1 µM (MARK1) | inhibition at 1 µM (EPHB2) | inhibition at 1 µM (CSNK1G1/CK1G1) | inhibition at 1 µM (TBK1) | inhibition at 1 µM (MAP3K2)
1 | C=CC(=O)N1CCCC(c2c(F)cc(C(N)=O)c3[nH]c4c(c23)CCCCC4)C1 (single isomer, unassigned) [Compound 5-6] | -28.6% | 15.4% | 21.3% | 17.2% | 10.9% | -19%
2 | C=CC(=O)N1CCC[C@@H](c2c(F)cc(C(N)=O)c3[nH]c4c(c23)CC2(CC4)CC2)C1 [Compound 6-2, (S)-5-(1-acryloylpiperidin-3-yl)-6-fluoro-1,2,4,9-tetrahydrospiro[carbazole-3,1′-cyclopropane]-8-carboxamide] | 5.6% | -63.9% | 11.8% | 14% | -34.6% | -6.6%
3 | C=CC(=O)N1CCC[C@@H](c2c(F)cc(C(N)=O)c3[nH]c4c(c23)CCC4)C1 [Compound 10-2, (S)-8-(1-acryloylpiperidin-3-yl)-7-fluoro-1,2,3,4-tetrahydrocyclo-penta[b]indole-5-carboxamide] | 7.8% | -12.9% | 0.9% | -2.8% | -31.3% | 15.7%
